In brackets after ≈: the same amount, converted by molar mass.
Legend:
Escherichia coli [1] = test: Antibacterial activity against Escherichia coli ATCC 25922 after 18 to 24 hrs by NCCLS M7-A5 based agar dilution method; assay type: functional
Escherichia coli [2] = test: Antibacterial activity against Escherichia coli ATCC 25922 assessed as zone of inhibition at 100 ug/disc after 24 hrs by agar disc diffusion method; assay type: functional; conditions: ATCC 25922, 24 h, read-out: DIZ
Staphylococcus aureus [3] = test: Antibacterial activity against Staphylococcus aureus ATCC 11632 after 18 to 24 hrs by NCCLS M7-A5 based agar dilution method; assay type: functional
Staphylococcus aureus [4] = test: Antibacterial activity against Staphylococcus aureus ATCC 11632 assessed as zone of inhibition at 100 ug/disc after 24 hrs by agar disc diffusion method; assay type: functional; conditions: ATCC 11632, 24 h, read-out: DIZ
Candida albicans [5] = test: Antifungal activity against Candida albicans ATCC 90028 after 18 to 24 hrs by NCCLS M7-A5 based agar dilution method; assay type: functional
Candida albicans [6] = test: Antifungal activity against Candida albicans ATCC 90028 assessed as zone of inhibition at 100 ug/disc after 48 hrs by agar disc diffusion method; assay type: functional; conditions: ATCC 90028, 48 h, read-out: DIZ
[7] = tested on: Mycobacterium tuberculosis; test: Antituberculosis activity against 10^7 cfu/mL Mycobacterium tuberculosis H37Rv after 28 days; assay type: functional; conditions: 672 h
Candida albicans [8] = test: Antifungal activity against Candida albicans ATCC 90028 assessed as zone of inhibition at 10 ug/disc after 48 hrs by agar disc diffusion method; assay type: functional; conditions: ATCC 90028, 48 h, read-out: DIZ
Escherichia coli [9] = test: microbe, parasite or virus in culture; conditions: ATCC 25922, 24 h, read-out: DIZ
Description: Antibacterial activity against Escherichia coli ATCC 25922 assessed as zone of inhibition at 10 ug/disc after 24 hrs by agar disc diffusion method

Staphylococcus aureus [10] = test: microbe, parasite or virus in culture; conditions: ATCC 11632, 24 h, read-out: DIZ
Description: Antibacterial activity against Staphylococcus aureus ATCC 11632 assessed as zone of inhibition at 10 ug/disc after 24 hrs by agar disc diffusion method

| SMILES | MIC (Escherichia coli [1]) [µg/mL] | zone of inhibition at 100 µg/disc (Escherichia coli [2]) [mm] | MIC (Staphylococcus aureus [3]) [µg/mL] | zone of inhibition at 100 µg/disc (Staphylococcus aureus [4]) [mm] | MIC (Candida albicans [5]) [µg/mL] | zone of inhibition at 100 µg/disc (Candida albicans [6]) [mm] | MIC [7] [µM] | zone of inhibition at 10 µg/disc (Candida albicans [8]) [mm] | zone of inhibition at 10 µg/disc (Escherichia coli [9]) [mm] | zone of inhibition at 10 µg/disc (Staphylococcus aureus [10]) [mm] |
| --- | --- | --- | --- | --- | --- | --- | --- | --- | --- | --- |
| Cc1ccc(C(=O)C[C@@H](c2ccc(Cl)cc2)[C@@H]2CCCc3[se]nnc32)cc1 | 12.5 (≈ 28.2 µM) | 15 | 25 (≈ 56.3 µM) | 18 | 12.5 (≈ 28.2 µM) | 17 | 3.5 (≈ 1.55 µg/mL) |  |  |  |
| Cc1ccc(-c2nn[se]c2[C@@H](c2ccc(Cl)cc2)[C@@H]2CCCc3[se]nnc32)cc1 | 25 (≈ 46.9 µM) | 15 | 25 (≈ 46.9 µM) | 15 | 12.5 (≈ 23.5 µM) | 15 | 23.5 (≈ 12.5 µg/mL) |  |  |  |
| Clc1ccc(-c2nn[se]c2[C@@H](c2ccc(Cl)cc2)[C@@H]2CCCc3[se]nnc32)cc1 | 12.5 (≈ 22.6 µM) | 15 | 25 (≈ 45.2 µM) | 15 | 12.5 (≈ 22.6 µM) | 15 | 22.5 (≈ 12.4 µg/mL) |  |  |  |
| Cc1ccc([C@H](c2[se]nnc2-c2ccccc2)[C@@H]2CCCc3[se]nnc32)cc1 | 25 (≈ 50.2 µM) | 12 | 12.5 (≈ 25.1 µM) | 16 | 50 (≈ 100 µM) | 10 | 50.2 (≈ 25 µg/mL) |  |  |  |
| COc1ccc([C@H](CC(=O)c2ccccc2)[C@@H]2CCCc3[se]nnc32)cc1 | 25 (≈ 58.8 µM) | 15 | 25 (≈ 58.8 µM) | 18 | 50 (≈ 118 µM) | 12 |  |  |  |  |
| COc1ccc(C(=O)C[C@@H](c2ccccc2)[C@@H]2CCCc3[se]nnc32)cc1 | 12.5 (≈ 29.4 µM) | 12 | 25 (≈ 58.8 µM) | 15 | 25 (≈ 58.8 µM) | 15 | 29.3 (≈ 12.5 µg/mL) |  |  |  |
| NNC(=O)c1ccncc1 [ISONIAZID] |  |  |  |  |  |  | 0.4 (≈ 0.0549 µg/mL) |  |  |  |
| Cc1ccc([C@H](CC(=O)c2ccccc2)[C@@H]2CCCc3[se]nnc32)cc1 | 25 (≈ 61.1 µM) | < 10 | 12.5 (≈ 30.5 µM) | 15 | 25 (≈ 61.1 µM) | 13 | 15.2 (≈ 6.22 µg/mL) |  |  |  |
| O=C(C[C@@H](c1ccc(Cl)cc1)[C@@H]1CCCc2[se]nnc21)c1ccccc1 | 12.5 (≈ 29.1 µM) | 18 | 12.5 (≈ 29.1 µM) | 16 | 25 (≈ 58.2 µM) | 15 | 3.6 (≈ 1.55 µg/mL) |  |  |  |
| Clc1ccc([C@H](c2[se]nnc2-c2ccccc2)[C@@H]2CCCc3[se]nnc32)cc1 | 50 (≈ 96.4 µM) | < 10 | 25 (≈ 48.2 µM) | 20 | 25 (≈ 48.2 µM) | 10 | 24.1 (≈ 12.5 µg/mL) |  |  |  |
| O=C(C[C@@H](c1ccc(Cl)cc1)[C@@H]1CCCc2[se]nnc21)c1ccc(Cl)cc1 | 6.25 (≈ 13.5 µM) | 20 | 6.25 (≈ 13.5 µM) | 20 | 12.5 (≈ 26.9 µM) | 15 | 3.3 (≈ 1.53 µg/mL) |  |  |  |
| c1ccc(-c2nn[se]c2[C@@H](c2ccccc2)[C@@H]2CCCc3[se]nnc32)cc1 | 25 (≈ 51.6 µM) | 12 | 25 (≈ 51.6 µM) | 15 | 25 (≈ 51.6 µM) | 15 | 51.6 (≈ 25 µg/mL) |  |  |  |
| CO[C@H]1/C=C/O[C@@]2(C)Oc3c(C)c(O)c4c(O)c(c(/C=N/N5CCN(C)CC5)c(O)c4c3C2=O)NC(=O)/C(C)=C\C=C\[C@H](C)[C@H](O)[C@@H](C)[C@@H](O)[C@@H](C)[C@H](OC(C)=O)[C@@H]1C [RIFAMPIN] |  |  |  |  |  |  | 0.1 (≈ 0.0823 µg/mL) |  |  |  |
| c1ccc([C@H](c2[se]nnc2-c2ccc3ccccc3c2)[C@@H]2CCCc3[se]nnc32)cc1 | 25 (≈ 46.8 µM) | 10 | 50 (≈ 93.6 µM) | 10 | 50 (≈ 93.6 µM) | 10 | 46.8 (≈ 25 µg/mL) |  |  |  |
| COc1ccc(-c2nn[se]c2[C@@H](c2ccccc2)[C@@H]2CCCc3[se]nnc32)cc1 | 25 (≈ 48.6 µM) | 12 | 25 (≈ 48.6 µM) | 12 | 50 (≈ 97.2 µM) | 12 | 48.6 (≈ 25 µg/mL) |  |  |  |
| O=C(C[C@@H](c1ccccc1)[C@@H]1CCCc2[se]nnc21)c1ccc2ccccc2c1 | 25 (≈ 56.1 µM) | 10 | 25 (≈ 56.1 µM) | 15 | 50 (≈ 112 µM) | 10 | 28 (≈ 12.5 µg/mL) |  |  |  |
| CC[C@@H](CO)NCCN[C@@H](CC)CO [ETHAMBUTOL] |  |  |  |  |  |  | 7.6 (≈ 1.55 µg/mL) |  |  |  |
| Clc1ccccc1C(c1ccccc1)(c1ccccc1)n1ccnc1 [CLOTRIMAZOLE] |  |  |  |  | 6.25 (≈ 18.1 µM) |  |  | 28 |  |  |
| Cc1ccc(-c2nn[se]c2[C@@H](c2ccccc2)[C@@H]2CCCc3[se]nnc32)cc1 | 25 (≈ 50.2 µM) | 16 | 50 (≈ 100 µM) | < 10 | 50 (≈ 100 µM) | 10 | 50.2 (≈ 25 µg/mL) |  |  |  |
| Clc1ccc(-c2nn[se]c2[C@@H](c2ccccc2)[C@@H]2CCCc3[se]nnc32)cc1 | 25 (≈ 48.2 µM) | 13 | 25 (≈ 48.2 µM) | 10 | 25 (≈ 48.2 µM) | 13 | 48.2 (≈ 25 µg/mL) |  |  |  |
| COc1ccc([C@H](c2[se]nnc2-c2ccccc2)[C@@H]2CCCc3[se]nnc32)cc1 | 50 (≈ 97.2 µM) | 15 | 50 (≈ 97.2 µM) | 15 | 50 (≈ 97.2 µM) | < 10 | 48.6 (≈ 25 µg/mL) |  |  |  |
| O=C(C[C@@H](c1ccccc1)[C@@H]1CCCc2[se]nnc21)c1ccccc1 | 12.5 (≈ 31.6 µM) | 18 | 12.5 (≈ 31.6 µM) | 15 | 25 (≈ 63.2 µM) | 15 | 15.8 (≈ 6.25 µg/mL) |  |  |  |
| COc1ccc(C(=O)C[C@@H](c2ccc(Cl)cc2)[C@@H]2CCCc3[se]nnc32)cc1 | 12.5 (≈ 27.2 µM) | 20 | 12.5 (≈ 27.2 µM) | 20 | 25 (≈ 54.4 µM) | 15 |  |  |  |  |
| O=C(O)c1cn(C2CC2)c2cc(N3CCNCC3)c(F)cc2c1=O [CIPROFLOXACIN] |  |  |  |  |  |  |  |  | 28 | 25 |
| O=C(C[C@@H](c1ccccc1)[C@@H]1CCCc2[se]nnc21)c1ccc(Cl)cc1 | 25 (≈ 58.2 µM) | 10 | 12.5 (≈ 29.1 µM) | 15 | 12.5 (≈ 29.1 µM) | 15 | 7.2 (≈ 3.09 µg/mL) |  |  |  |
| Cc1ccc(C(=O)C[C@@H](c2ccccc2)[C@@H]2CCCc3[se]nnc32)cc1 | 12.5 (≈ 30.5 µM) | 17 | 25 (≈ 61.1 µM) | 18 | 25 (≈ 61.1 µM) | 12 |  |  |  |  |
| COc1ccc(-c2nn[se]c2[C@@H](c2ccc(Cl)cc2)[C@@H]2CCCc3[se]nnc32)cc1 | 12.5 (≈ 22.8 µM) | 18 | 25 (≈ 45.6 µM) | 18 | 25 (≈ 45.6 µM) | 15 | 45.5 (≈ 25 µg/mL) |  |  |  |

Source: ChEMBL document CHEMBL1833855, “A facile synthesis of carbocycle-fused mono and bis-1,2,3-selenadiazoles and their antimicrobial and antimycobacterial studies” (2011)
